Experimental data from patent publication US12139487B2, “Compounds and uses thereof” (Foghorn Therapeutics Inc., priority 2022, dated 2024).

Columns and labels:
BRM = target: T1, BRM (Homo sapiens, UniProt P51531); experiment: ATPase catalytic activity assay (ADP-Glo), BRM; type: biochemical; conditions: Table 10; for Ratio (BRG1 IC50 (μM) divided by BRM IC50 (μM)): ATPase assay, selectivity BRG1/BRM; for IC50: ATPase catalytic activity assay (ADP-Glo)
T1 construct: made in house; host or cells: High Five insect cells
T1 sequence (P51531 whole entry): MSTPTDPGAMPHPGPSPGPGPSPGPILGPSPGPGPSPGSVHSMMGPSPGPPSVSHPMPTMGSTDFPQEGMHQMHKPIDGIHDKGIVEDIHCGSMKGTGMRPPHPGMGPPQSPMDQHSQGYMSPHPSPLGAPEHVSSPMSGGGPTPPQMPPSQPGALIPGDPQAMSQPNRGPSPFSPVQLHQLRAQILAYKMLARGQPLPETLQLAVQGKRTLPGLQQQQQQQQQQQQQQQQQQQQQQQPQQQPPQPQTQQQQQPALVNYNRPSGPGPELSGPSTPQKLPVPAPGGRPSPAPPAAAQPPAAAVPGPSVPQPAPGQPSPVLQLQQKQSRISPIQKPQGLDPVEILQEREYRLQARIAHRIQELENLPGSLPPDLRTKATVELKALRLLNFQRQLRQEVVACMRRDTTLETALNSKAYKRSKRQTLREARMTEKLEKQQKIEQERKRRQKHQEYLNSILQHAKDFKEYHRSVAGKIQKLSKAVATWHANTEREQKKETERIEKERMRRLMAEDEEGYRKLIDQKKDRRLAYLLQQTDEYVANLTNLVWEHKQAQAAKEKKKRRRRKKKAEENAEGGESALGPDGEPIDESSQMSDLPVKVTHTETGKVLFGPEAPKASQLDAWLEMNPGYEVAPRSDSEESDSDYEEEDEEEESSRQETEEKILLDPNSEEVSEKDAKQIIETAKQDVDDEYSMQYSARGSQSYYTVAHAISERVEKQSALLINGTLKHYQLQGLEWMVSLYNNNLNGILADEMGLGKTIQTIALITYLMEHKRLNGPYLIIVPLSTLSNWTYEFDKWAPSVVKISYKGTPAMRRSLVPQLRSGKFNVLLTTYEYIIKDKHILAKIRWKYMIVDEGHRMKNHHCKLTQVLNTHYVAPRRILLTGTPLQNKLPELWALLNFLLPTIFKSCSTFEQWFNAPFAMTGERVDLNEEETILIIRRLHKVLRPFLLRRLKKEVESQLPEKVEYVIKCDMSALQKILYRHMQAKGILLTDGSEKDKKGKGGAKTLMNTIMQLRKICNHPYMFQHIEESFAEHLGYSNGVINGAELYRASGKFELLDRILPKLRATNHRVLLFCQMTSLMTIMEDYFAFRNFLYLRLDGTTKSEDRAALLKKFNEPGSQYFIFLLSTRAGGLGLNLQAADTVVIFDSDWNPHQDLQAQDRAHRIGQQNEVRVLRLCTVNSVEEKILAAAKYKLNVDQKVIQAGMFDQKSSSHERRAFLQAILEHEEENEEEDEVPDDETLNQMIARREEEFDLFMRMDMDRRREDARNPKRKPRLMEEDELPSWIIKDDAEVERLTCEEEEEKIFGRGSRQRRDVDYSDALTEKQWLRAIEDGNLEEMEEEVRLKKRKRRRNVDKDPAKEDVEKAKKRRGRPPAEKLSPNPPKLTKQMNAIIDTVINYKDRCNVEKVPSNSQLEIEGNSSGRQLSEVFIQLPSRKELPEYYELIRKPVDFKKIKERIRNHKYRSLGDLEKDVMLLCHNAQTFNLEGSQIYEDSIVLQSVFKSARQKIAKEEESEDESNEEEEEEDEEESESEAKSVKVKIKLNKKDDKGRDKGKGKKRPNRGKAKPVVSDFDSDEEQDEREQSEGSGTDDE
In short: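 ADP-Glo luminescence measures ADP produced by BRM ATPase (30 nM) during 1 h at room temperature. ATP is 400 μM, with 20 nM salmon sperm DNA as cofactor. Buffer: 20 mM Tris pH 8, 20 mM MgCl2, 50 mM NaCl, 0.1% Tween-20, 1 mM DTT.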

BRG-1 = target: T2, BRG-1 (Homo sapiens, UniProt P51532); experiment: ATPase catalytic activity assay (ADP-Glo), BRG-1; type: biochemical; conditions: Table 10, read-out: BRG1 IC50
T2 construct: made in house; host or cells: High Five insect cells
T2 sequence (P51532 whole entry): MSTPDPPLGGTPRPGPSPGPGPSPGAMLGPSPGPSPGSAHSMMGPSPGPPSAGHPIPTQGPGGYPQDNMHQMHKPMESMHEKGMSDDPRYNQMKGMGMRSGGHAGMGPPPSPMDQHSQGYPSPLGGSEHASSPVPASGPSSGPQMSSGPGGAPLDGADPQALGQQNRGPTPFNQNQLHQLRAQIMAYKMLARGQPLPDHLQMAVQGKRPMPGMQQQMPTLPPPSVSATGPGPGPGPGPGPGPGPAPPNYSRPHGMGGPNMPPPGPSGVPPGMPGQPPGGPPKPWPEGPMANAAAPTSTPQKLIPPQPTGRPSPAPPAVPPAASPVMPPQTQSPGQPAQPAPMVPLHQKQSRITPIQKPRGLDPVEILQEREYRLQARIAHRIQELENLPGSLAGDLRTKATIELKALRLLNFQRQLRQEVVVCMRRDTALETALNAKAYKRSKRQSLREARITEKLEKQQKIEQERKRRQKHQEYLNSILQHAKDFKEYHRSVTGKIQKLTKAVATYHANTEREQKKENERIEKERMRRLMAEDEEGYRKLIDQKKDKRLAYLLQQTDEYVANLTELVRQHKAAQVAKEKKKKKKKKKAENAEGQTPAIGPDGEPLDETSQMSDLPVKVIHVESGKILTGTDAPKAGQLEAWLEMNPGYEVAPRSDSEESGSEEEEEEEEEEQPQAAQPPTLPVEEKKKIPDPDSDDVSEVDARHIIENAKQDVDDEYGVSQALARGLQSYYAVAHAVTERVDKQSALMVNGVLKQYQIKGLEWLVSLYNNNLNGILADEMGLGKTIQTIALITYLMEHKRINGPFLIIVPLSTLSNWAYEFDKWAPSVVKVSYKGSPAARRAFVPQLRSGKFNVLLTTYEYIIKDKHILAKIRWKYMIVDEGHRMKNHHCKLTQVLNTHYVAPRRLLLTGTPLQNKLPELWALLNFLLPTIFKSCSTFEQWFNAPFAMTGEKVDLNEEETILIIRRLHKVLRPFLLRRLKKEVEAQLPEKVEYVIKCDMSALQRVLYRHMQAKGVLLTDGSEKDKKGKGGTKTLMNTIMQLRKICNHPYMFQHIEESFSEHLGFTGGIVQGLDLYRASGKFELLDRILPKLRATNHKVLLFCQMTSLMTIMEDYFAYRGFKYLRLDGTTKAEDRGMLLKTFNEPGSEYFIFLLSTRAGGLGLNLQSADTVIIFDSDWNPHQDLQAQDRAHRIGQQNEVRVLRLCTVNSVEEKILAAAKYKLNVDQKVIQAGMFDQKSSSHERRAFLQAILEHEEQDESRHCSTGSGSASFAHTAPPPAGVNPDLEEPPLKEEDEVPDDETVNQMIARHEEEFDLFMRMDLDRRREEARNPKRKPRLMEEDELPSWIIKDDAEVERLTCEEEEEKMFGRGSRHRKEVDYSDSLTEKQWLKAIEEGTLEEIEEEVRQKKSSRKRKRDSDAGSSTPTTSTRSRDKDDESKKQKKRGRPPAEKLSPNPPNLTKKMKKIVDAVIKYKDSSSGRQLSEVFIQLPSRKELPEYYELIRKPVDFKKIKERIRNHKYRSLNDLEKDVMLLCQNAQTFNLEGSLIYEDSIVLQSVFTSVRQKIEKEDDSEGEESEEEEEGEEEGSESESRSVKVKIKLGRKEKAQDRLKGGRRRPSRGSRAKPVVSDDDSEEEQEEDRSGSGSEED
In short: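 Luminescence read-out: ADP formed by BRG-1 ATPase is converted to ATP and detected by luciferase. Residual ATP is first removed with ADP-Glo Reagent for 40 min at RT; detection reagent is then incubated 60 min at RT before reading.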

SMILES	Ratio (BRG1 IC50 (μM) divided by BRM IC50 (μM)) (BRM)	IC50 (BRM) [nM]	IC50 (BRG-1) [nM]
O=C(NCc1cc2nc(N3CCOc4ccc(N5CC(F)C5)nc43)ccc2cn1)c1cc(F)c2c(c1)S(=O)(=O)[C@@H](F)COC2 [Compound 63]	23.13	2.6	58.7
C[C@@H]1CN(c2cccc(-c3ccc4cnc(CNC(=O)c5cc(C(F)F)c6c(c5)S(=O)(=O)[C@@H](F)CCO6)cc4n3)n2)C[C@H](C)O1 [Compound 64]	11.59	2.6	29.8
CO[C@H]1CN(c2cccc(-c3ccc4cnc(CNC(=O)c5cc(F)c6c(c5)S(=O)(=O)[C@@H](F)CCO6)cc4n3)n2)C[C@@H]1C [Compound 67]	17.37	2.7	46.2
Cc1cc2c(-c3ccc4cnc(CNC(=O)c5cc(F)c6c(c5)S(=O)(=O)[C@@H](F)CCO6)cc4n3)ccc(F)c2n1C [Compound 68]	13.58	2.7	36.2
C[C@H]1[C@@H](F)CN1c1cnc2c(c1)OCCN2c1ccc2cnc(CNC(=O)c3cc(F)c4c(c3)S(=O)(=O)[C@@H](F)CCO4)cc2n1 [Compound 69]	13.99	2.7	37.5
COc1cnc2c(c1)OCCN2c1ccc2cnc(CNC(=O)c3cc(F)c4c(c3)S(=O)(=O)[C@@H](F)CCO4)cc2n1 [Compound 71]	17.64	2.7	48.3
Cc1ccc(-c2ccc3cnc(CNC(=O)c4cc(F)c5c(c4)S(=O)(=O)[C@@H](F)COC5)cc3n2)c(OC(F)F)n1 [Compound 73]	20.62	2.8	57.1
O=C(NCc1cc2nc(N3CCOc4cc([C@@H]5CC5(F)F)cnc43)ccc2cn1)c1cc(F)c2c(c1)S(=O)(=O)[C@@H](F)COC2 [Compound 74]	9.59	2.8	26.7
COc1nc(C(C)(F)F)ccc1-c1ccc2cnc(CNC(=O)c3cc(F)c4c(c3)S(=O)(=O)[C@@H](F)COC4)cc2n1 [Compound 75]	26.00	2.8	80.1
O=C(NCc1cc2nc(N3CCCc4c3ccnc4OC3CC3)ccc2cn1)c1cc(F)c2c(c1)S(=O)(=O)[C@@H](F)CCO2 [Compound 76]	16.02	2.8	45.1
C[C@@H]1[C@@H](F)CN1c1cnc2c(c1)OCCN2c1ccc2cnc(CNC(=O)c3cc(F)c4c(c3)S(=O)(=O)[C@@H](F)CCO4)cc2n1 [Compound 80]	16.24	3	48.4
Cc1cnc2c(c1)OCCN2c1ccc2cnc(CNC(=O)c3ccc4c(c3)S(=O)(=O)[C@@H](F)CCO4)cc2n1 [Compound 83]	19.36	3.1	49.6
O=C(NCc1cc2nc(-c3ccc(OC(F)F)c(C4CC4)n3)ccc2cn1)c1cc(F)c2c(c1)S(=O)(=O)[C@@H](F)COC2 [Compound 85]	20.37	3.1	69.9
O=C(NCc1cc2nc(N3CCOc4ccc(N5CC[C@@H](F)C5)nc43)ccc2cn1)c1cc(F)c2c(c1)S(=O)(=O)[C@@H](F)CCO2 [Compound 86]	17.70	3.2	51.2
[2H]C1([2H])Oc2c(F)cc(C(=O)NCc3cc4nc(N5CCOc6cc(C7CC7)cnc65)ccc4cn3)cc2S(=O)(=O)[C@]([2H])(F)C1([2H])[2H] [Compound 90]	15.80	3.2	51.2
O=C(NCc1cc2nc(N3CCOc4ccc(C5CC5)nc43)ccc2cn1)c1ccc2c(c1)S(=O)(=O)[C@@H](F)CCO2 [Compound 96]	22.86	3.4	86.4
COc1nc([C@H](F)CF)ccc1-c1ccc2cnc(CNC(=O)c3cc(F)c4c(c3)S(=O)(=O)[C@@H](F)CCO4)cc2n1 [Compound 98]	31.77	3.5	123
CCN(CC)c1cnc2c(c1)OCCN2c1ccc2cnc(CNC(=O)c3cc(F)c4c(c3)S(=O)(=O)[C@@H](F)CCO4)cc2n1 [Compound 99]	12.19	3.5	42.7
Cc1cc(C(=O)NCc2cc3nc(-c4cccc(N5C[C@@H](C)O[C@@H](C)C5)n4)ccc3cn2)cc2c1OCC[C@H](F)S2(=O)=O [Compound 100]	13.01	3.5	44.8
O=C(NCc1cc2cc(-c3cncc(N4CCCC4)n3)ccc2cn1)c1cc(F)c2c(c1)S(=O)(=O)[C@@H](F)CCO2 [Compound 101]	23.62	3.5	83.4

Now from value to molecule:

Ratio (BRG1 IC50 (μM) divided by BRM IC50 (μM)) (BRM)	IC50 (BRM) [nM]	IC50 (BRG-1) [nM]	SMILES
21.94	2.6	46.2	O=C(NCc1cc2nc(N3CCOc4c(N5CCC5)ccnc43)ccc2cn1)c1cc(F)c2c(c1)S(=O)(=O)[C@@H](F)CCO2 [Compound 65]
24.64	2.6	78.5	O=C(NCc1cc2nc(N3CCOc4cc(N5C[C@@H](F)[C@H](F)C5)cnc43)ccc2cn1)c1cc(F)c2c(c1)S(=O)(=O)[C@@H](F)CCO2 [Compound 66]
12.79	2.7	39.6	O=C(NCc1cc2nc(N3CCOc4cc(C5(C(F)F)CC5)cnc43)ccc2cn1)c1cc(F)c2c(c1)S(=O)(=O)[C@@H](F)CCO2 [Compound 70]
21.76	2.8	66.6	O=C(NCc1cc2nc(N3CCOc4ccc(C5CC5)nc43)ccc2cn1)c1cc(F)c2c(c1)S(=O)(=O)[C@@H](F)COC2 [Compound 72]
23.82	2.8	67	O=C(NCc1cc2cc(-c3cncc(C4CC4)n3)ccc2cn1)c1cc(F)c2c(c1)S(=O)(=O)[C@@H](F)COC2 [Compound 77]
12.12	3	34.4	C[C@@H]1CN(c2cccc(-c3ccc4cnc(CNC(=O)c5cc(Cl)c6c(c5)S(=O)(=O)[C@@H](F)COC6)cc4n3)n2)C[C@H](C)O1 [Compound 79]
14.31	3	46.7	COc1cc2c(nc1C(F)F)N(c1ccc3cnc(CNC(=O)c4cc(F)c5c(c4)S(=O)(=O)[C@@H](F)CCO5)cc3n1)CCO2 [Compound 81]
22.96	3.1	68	CCc1cnc2c(c1)OCCN2c1ccc2cnc(CNC(=O)c3cc(F)c4c(c3)S(=O)(=O)[C@@H](F)CCO4)cc2n1 [Compound 82]
25.97	3.1	95.7	[2H]C1([2H])Oc2c(F)cc(C(=O)NCc3cc4nc(-c5ccc(C(F)F)nc5OC)ccc4cn3)cc2S(=O)(=O)[C@@]([2H])(F)C1([2H])[2H] [Compound 84]
20.66	3.2	78.3	O=C(NCc1cc2nc(N3CCOc4cc([C@@H]5CC5(F)F)cnc43)ccc2cn1)c1cc(F)c2c(c1)S(=O)(=O)[C@@H](F)CCO2 [Compound 87]
21.33	3.2	88.9	O=C(NCc1cc2nc(N3CCOc4ccc([C@H]5C[C@H]5F)nc43)ccc2cn1)c1cc(F)c2c(c1)S(=O)(=O)[C@@H](F)COC2 [Compound 88]
28.75	3.2	132	O=C(NCc1cc2nc(-c3ccc(OC(F)F)c(C4CC4)n3)ccc2cn1)c1cc(F)c2c(c1)S(=O)(=O)[C@@H](F)CCO2 [Compound 89]
14.38	3.2	46.7	CCOc1cc(C(F)F)nc2c1OCCN2c1ccc2cnc(CNC(=O)c3cc(F)c4c(c3)S(=O)(=O)[C@@H](F)CCO4)cc2n1 [Compound 91]
17.66	3.4	65.7	CO[C@H]1CN(c2cccc(-c3ccc4cnc(CNC(=O)c5cc(F)c6c(c5)S(=O)(=O)[C@@H](F)CCO6)cc4n3)n2)C[C@@H]1F [Compound 97]
